Source: paper PMC6905855, “Agonist-specific voltage-dependent gating of lysosomal two-pore Na^+ channels” (eLife, 2019)
“And” between values parts separate entries of the source, which are not always exact repeats. Equal entries are not always repeated.

Tests used:
hTPC2 = biological target: T1, hTPC2 (Homo sapiens, UniProt Q8NHX9); assay: Whole-endolysosome recordings of ITPC2; assay type: biochemical; settings: for Normalized I-TPC2: WT TPC2
T1 construct: expressed in transfected cells; host or cells: Cos1 and HEK293

hTPC1 = biological target: T2, hTPC1 (Homo sapiens, UniProt Q9ULQ1); assay: Whole-endolysosome recordings of ITPC1; assay type: biochemical
T2 construct: expressed in transfected cells; host or cells: Cos1
Experimental: It was therefore of interest to explore whether TCAs/LyNa-VAs could also act on TPC1. To investigate this, we used two different voltage paradigms. […] Second, we used a tail current paradigm to measure the amplitude of the peak inward current at −120 mV following prolonged steps to various potentials (Figure 4E).
Figure 4. […] HP = 0 mV. […] Dotted lines in A indicate where the currents were measured. […] Data are presented as Mean ± S.E.M (n = 3 patches). […] (G) Normalized I-V plots of basal voltage-dependent currents in WT TPC1- and TPC1^R540I-transfected cells. […] Figure 4—source data 1. […] Figure 4—figure supplement 1. […] (A) A voltage protocol that elicited ITPC1 tail currents as shown in Figure 4E (from −140 to 100 mV with a ∆V = 20 mV, 1 s with a 10 s inter-step interval). Arrows indicate where tail currents were measured. (B) A voltage protocol that elicited ITPC1 tail currents as shown in C. […] HP = 0 mV. […] (A) Basal whole-endolysosome ITPC1 (left) or ITPC1-R540I (right) was elicited by voltage steps (−140 to +100 mV with ΔV = 20 mV) in the absence of PI(3,5)P2 in TPC1-transfected Cos1 cells ([She et al., 2019]). Tail currents were elicited at −120 mV. (B) The effects of PI(3,5)P2 (0.3 µM) on ITPC1 (left) and ITPC1-R540I (right) step currents. […] A preconditioning voltage (+80 mV, 0.1 s) was applied before voltage steps starting from −140 to 100 mV (0.5 s, ∆V = 20 mV).
(§1) All TPC1 and TPC2 mutants were generated with a site-directed mutagenesis kit (Qiagen) using EGFP- human TPC1 and TPC2 as the templates. All constructs were confirmed by DNA sequencing.
Whole-endolysosome recordings were performed on manually isolated enlarged endolysosomes ([Wang et al., 2012]). In brief, a patch pipette was pressed against a cell and quickly pulled away to slice the cell membrane. Enlarged endolysosomes were released into a dish and identified by monitoring EGFP-TPC1/2 or the mCherry-TPC1/2 fluorescence. After formation of a gigaseal between the patch pipette and the enlarged endolysosome, capacitance transients were compensated. Voltage steps of several hundred mVs with millisecond duration were then applied to break into the vacuolar membrane. The whole-endolysosome configuration was verified by the re-appearance of capacitance transients after break-in.
Data were collected using an Axopatch 200A patch clamp amplifier, Digidata 1440, and pClamp 10.2 software (Axon Instruments). Whole-endolysosome currents were digitized at 10 kHz and filtered at 2 kHz. All experiments were conducted at room temperature (21–23°C), and all recordings were analyzed with pClamp 10.2, and Origin 8.0 (OriginLab, Northampton, MA). The permeability to cations (relative to PNa) was estimated based on following equations ([Lewis, 1979]) and Erev measurement under bi-ionic conditions:(1) PX/PNa=γNa/γX{[Na^+]Luminal/[X^+]Cytoplasmic}{exp([…])} (2) PCa/PNa=γNa/γCa{[Na^+]Cytoplasmic/[4[Ca^2+]Luminal}{exp(ErevF/RT)}{1+exp(ErevF/RT)} where R, T, F, Erev, and γ are, respectively, the gas constant, absolute temperature, Faraday constant, reversal potential, and activity coefficient. The liquid junction potentials were measured and corrected as described ([Neher, 1992]).

[1] = biological target: T3, surface-expressing mutant TPC2 channel (TPC2^LL/AA) in HEK293 cells (Homo sapiens, UniProt Q8NHX9, L11A/L12A); assay: Whole-cell recordings of ITPC2-LL/AA; assay type: cell-based
T3 construct: expressed in transfected cells; host or cells: HEK293
From the text: We therefore characterized the responses of TPC2 channels to TCAs in detail using electrophysiological methods. We first performed whole-cell recordings in HEK293 cells that were transfected with surface-expressed TPC2 mutant channels (TPC2-L^11L^12-AA; abbreviated as TPC2^LL/AA hereafter).
as §1
Cells were transfected with Lipofectamine 2000 (Invitrogen). After culture media were refreshed 18–24 hr post-transfection, cells were used for the electrophysiological assays 24–36 hr post-transfection.
All bath solutions were applied via a perfusion system that allowed complete solution exchange within a few seconds. […] Whole-cell currents were digitized at 10 kHz and filtered at 2 kHz.

T1 sequence (Q8NHX9 whole entry): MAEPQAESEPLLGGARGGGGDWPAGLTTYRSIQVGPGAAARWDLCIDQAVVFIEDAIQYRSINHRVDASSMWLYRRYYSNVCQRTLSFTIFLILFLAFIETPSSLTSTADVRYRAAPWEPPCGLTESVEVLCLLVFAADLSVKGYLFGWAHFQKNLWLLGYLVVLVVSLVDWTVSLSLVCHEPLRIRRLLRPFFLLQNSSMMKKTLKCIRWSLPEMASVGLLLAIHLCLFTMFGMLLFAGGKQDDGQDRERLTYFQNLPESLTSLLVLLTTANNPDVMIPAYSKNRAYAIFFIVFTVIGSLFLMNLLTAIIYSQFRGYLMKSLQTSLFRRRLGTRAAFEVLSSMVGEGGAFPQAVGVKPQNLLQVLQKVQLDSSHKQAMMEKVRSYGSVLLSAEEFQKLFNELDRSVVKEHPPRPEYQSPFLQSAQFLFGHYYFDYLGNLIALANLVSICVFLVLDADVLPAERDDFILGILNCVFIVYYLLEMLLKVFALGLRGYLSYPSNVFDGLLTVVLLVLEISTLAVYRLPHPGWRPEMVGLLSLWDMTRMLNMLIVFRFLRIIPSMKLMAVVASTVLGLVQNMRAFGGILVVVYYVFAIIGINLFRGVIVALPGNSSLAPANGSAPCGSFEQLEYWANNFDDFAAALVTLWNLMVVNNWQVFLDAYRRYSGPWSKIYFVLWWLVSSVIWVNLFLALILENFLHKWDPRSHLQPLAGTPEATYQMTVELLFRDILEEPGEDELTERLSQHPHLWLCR
T3 sequence (Q8NHX9 whole entry L11A/L12A): as the sequence (Q8NHX9 whole entry) above, with L11A, L12A counted along it

CN(C)CCCN1c2ccccc2CCc2ccc(Cl)cc21 [LyNa-VA1.1, Clomipramine]
combined effect with PI(3,5)P2 on whole-endolysosome ITPC2 (in words) (hTPC2; PI(3,5)P2 50 nM): synergistic effects | EC50 (hTPC2; WT +PI(3,5)P2 (50 nM), whole-endolysosome, Figure 3C): 12 ± 7 µM | EC50 (hTPC2; WT -PI(3,5)P2, whole-endolysosome, Figure 3C): 48 ± 16 µM | Normalized I-TPC2 (hTPC2; 1 µM + PI(3,5)P2 50nM, individual patches): 0.3375 and 0.1568 and 0.08956 | Normalized I-TPC2 (hTPC2; 1 µM + PI(3,5)P2 50nM, mean): 0.1946 | Normalized I-TPC2 (hTPC2; 3 µM + PI(3,5)P2 50nM, individual patches): 0.35 and 0.3063 and 0.1 | Normalized I-TPC2 (hTPC2; 3 µM + PI(3,5)P2 50nM, mean): 0.2521 | Normalized I-TPC2 (hTPC2; 10 µM + PI(3,5)P2 50nM, individual patches): 0.5558 and 0.7252 and 0.2889 | Normalized I-TPC2 (hTPC2; 10 µM + PI(3,5)P2 50nM, mean): 0.5233 | Normalized I-TPC2 (hTPC2; 10 µM, no PI(3,5)P2, individual patches): 0.08625 and 0.1427 and 0.1845 | Normalized I-TPC2 (hTPC2; 10 µM, no PI(3,5)P2, mean): 0.1378 | Normalized I-TPC2 (hTPC2; 20 µM, no PI(3,5)P2, individual patches): 0.2419 and 0.1804 and 0.1168 | Normalized I-TPC2 (hTPC2; 20 µM, no PI(3,5)P2, mean): 0.1797 | Normalized I-TPC2 (hTPC2; 30 µM + PI(3,5)P2 50nM, individual patches): 1 (2×) and 0.3222 | Normalized I-TPC2 (hTPC2; 30 µM + PI(3,5)P2 50nM, mean): 0.7741 | Normalized I-TPC2 (hTPC2; 50 µM, no PI(3,5)P2, individual patches): 0.8473 and 0.4535 and 0.5893 | Normalized I-TPC2 (hTPC2; 50 µM, no PI(3,5)P2, mean): 0.63 | Normalized I-TPC2 (hTPC2; 100 µM + PI(3,5)P2 50nM, individual patches): 0.7417 and 0.7423 and 1 | Normalized I-TPC2 (hTPC2; 100 µM + PI(3,5)P2 50nM, mean): 0.828 | Normalized I-TPC2 (hTPC2; 100 µM, no PI(3,5)P2, individual patches): 1 (2×) and 0.99 | Normalized I-TPC2 (hTPC2; 100 µM, no PI(3,5)P2, mean): 0.9967 | Normalized I-TPC2 (hTPC2; 200 µM, no PI(3,5)P2, individual patches): 0.7106 and 0.507 and 0.6545 | Normalized I-TPC2 (hTPC2; 200 µM, no PI(3,5)P2, mean): 0.624 | EC50 (hTPC2; WT+pip2 (50 nM), MEAN (Fig. 3D)): 14.6 µM | EC50 (hTPC2; WT+pip2 (50 nM), individual patches (Fig. 3D)): 27 µM and 12.6 µM and 4.3 µM | EC50 (hTPC2; WT-pip2, MEAN (Fig. 3D)): 45.1 µM | EC50 (hTPC2; WT-pip2, individual patches (Fig. 3D)): 56 µM and 48.4 µM and 30.8 µM | ITPC2 (hTPC2; whole endolysosome recordings with 100 µM of LyNa-VAs at −120 mV): 945 ± 111 pA | effect on whole-endolysosome ITPC1 (in words) (hTPC1): profound suppression of outward currents at potentials positive to Erev (~0 mV), and a substantial enhancement of inward currents negative to Erev | Dose-dependent activation of TPC1 (normalized ITPC1) (hTPC1; 3 µM, individual patches): 0.0359 and 0.105 and 0 | Dose-dependent activation of TPC1 (normalized ITPC1) (hTPC1; 3 µM, mean): 0.04696 | Dose-dependent activation of TPC1 (normalized ITPC1) (hTPC1; 10 µM, individual patches): 0.1722 and 0.1955 and 0.1208 | Dose-dependent activation of TPC1 (normalized ITPC1) (hTPC1; 10 µM, mean): 0.1629 | Dose-dependent activation of TPC1 (normalized ITPC1) (hTPC1; 30 µM, individual patches): 0.6041 and 0.3178 and 0.3982 | Dose-dependent activation of TPC1 (normalized ITPC1) (hTPC1; 30 µM, mean): 0.44 | Dose-dependent activation of TPC1 (normalized ITPC1) (hTPC1; 100 µM, individual patches): 1 and 0.7031 and 0.8638 | Dose-dependent activation of TPC1 (normalized ITPC1) (hTPC1; 100 µM, mean): 0.8556 | Dose-dependent activation of TPC1 (normalized ITPC1) (hTPC1; 300 µM, individual patches): 0.8072 and 1 (2×) | Dose-dependent activation of TPC1 (normalized ITPC1) (hTPC1; 300 µM, mean): 0.9357 | τ of ITPC1 step currents (hTPC1; hTPC1, LyNa-VA1.1 (100 µM), Figure 4A): 155 ± 1 ms | V1/2 of ITPC1 G-V curve (hTPC1; hTPC1, LyNa-VA1.1 (100 µM), Figure 4F): -30 ± 5 mV | τ of ITPC1 tail currents (hTPC1; hTPC1, tail currents at −120 mV, LyNa-VA1.1 (100 µM), Figure 4E): 203 ± 2 ms | EC50 (hTPC1; whole-endolysosome, n = 3 patches, read-out: EC50, activation of TPC1): 27 ± 2 µM | activation of whole-cell ITPC2-LL/AA (in words) [1]: activated | current, whole-cell ITPC2-LL/AA [1]: 1835.6 pA and 1904.2 pA and 1632.7 pA and 1290 pA and 1968.1 pA | EC50 ([1]; whole-cell recordings at −140 mV, TPC2^LL/AA-transfected HEK293 cells, read-out: EC50): 43 ± 2 µM
